Assay results: patent US12486287B2, “Solid forms of a promoter of spinogenesis” (Spinogenix, Inc., priority 2019, dated 2025)
≈ marks a conversion by molar mass, not a printed value. Each block holds one molecule with its values, some of them ahead of it.

Tests used:
Assay type in all cases: physicochemical
[1] = Stability / interconversion of crystal forms (XRPD)
Description: Compound I was subjected to various crystallization conditions, including solid vapor diffusion, anti-solvent addition, liquid vapor diffusion, slow cooling, slurry conversion at various temperatures, temperature cycling, and slow evaporation. Crystalline forms of Compound I were analyzed by X-ray powder diffraction (XRPD), differential scanning calorimetry (DSC) and thermogravimetric analysis (TGA), while metastable forms were analyzed by XRPD. XRPD was performed with a Panalytical X'Pert3 Powder XRPD with a Si zero-background holder. The 2θ position was calibrated against a Panalytical Si reference standard disc.
Forms II and III only existed in the wet state and no solid was isolated for thermal analyses. Form V solids were obtained, however, Form V changed to Form I at around 50° C. upon drying in a vacuum oven. A summary of isolated forms and conditions is in Table 1-5 and Table 1-6.

[2] = Solid state stability evaluation (XRPD, PLM, HPLC purity after storage); details: for HPLC purity decrease after storage / Form change after storage (XRPD): 30° C./65% RH and 40° C./75% RH, open and closed; for Form change after storage (XRPD): up to 4 weeks; for Purity (Area %): HPLC; for Form Change: XRPD
Description: Agilent 1260 HPLC with VWD detector was utilized and detailed chromatographic conditions for purity analysis are listed ill Table 1-4.
The solid state stability of Compound I was evaluated under conditions of 30° C./65% RH (open dish and closed container) and 40° C./75% RH (open dish and closed container) for 4 weeks. The detailed procedures utilized for stability evaluation are listed: 1) Weighed about 10 mg of Compound I starting material into 3-mL glass vials; 2) For the open dish conditions, covered the vials with Parafilm® and poked 6 holes. For the closed conditions, sealed the vials with caps and kept the vials in the corresponding conditions, respectively; For the condition of 40° C./75% RH, placed the vials in the stability chamber of 40° C./75% RH; For the condition of 30° C./65% RH, placed the vials in the airtight atmosphere generated by saturated aqueous potassium iodide solution in 30° C. bio-chemical; 4) Samples taken for XRPD, PLM, and HPLC purity after 3 days, 1 week, 2 weeks and 4 weeks.
Solid state stability evaluation of Compound I Form I starting material was performed under conditions of 30° C./65% RH (closed and open) and 40° C./75% RH (closed and open). X-ray powder diffraction (XRPD), polarizing microscope (PLM) and HPLC purity were characterized at 4 sampling points (3 days, 1 week, 2 weeks, 4 weeks).
For the single crystal structure determination, 83 single crystal growth experiments were performed by different methods including slow evaporation, liquid vapor diffusion, slow cooling, heating-cooling and solvent-thermal synthesis. The stability evaluation experiments in 40° C./75% RH condition were performed using stability chamber, while the 30° C./65% RH condition was set up by saturated aqueous potassium iodide solution in 30° C. bio-chemical incubator.

[3] = Approximate solubility in single solvents at RT; details: thermodynamic from solid, room temperature
Description: Approximate solubility of Compound I was determined in 20 single solvents at RT. Approximately 2 mg of powder sample was added into a 3-mL glass vial. Corresponding solvents were added stepwise (50 μL→100 μL→300 μL→1000 μL) into each vial until powder solids were completely dissolved visually or a total volume of 1 mL solvent was added. Approximate solubility values were calculated based on sample mass, solvent volume, and experimental observation. Results summarized in Table 3-1 were used to guide subsequent solvent selection in the design of polymorph screening experiments.

[4] = Dynamic vapor sorption (DVS)
Description: DVS was measured via a SMS (Surface Measurement Systems) DVS Intrinsic. The relative humidity at 25° C. were calibrated against deliquescence point of LiCl, Mg(NO3)2 and KCl.
Compound I starting material was the delivered sample. The starting material was characterized by XRPD, thermo-gravimetric analysis (TGA), differential scanning calorimetry (DSC), PLM and dynamic vapor sorption (DVS).

[5] = 30° C./65% RH, closed container, 1 week
[6] = 30° C./65% RH, closed container, 2 weeks
[7] = 30° C./65% RH, closed container, 4 weeks
[8] = 30° C./65% RH, closed container, 3 days
[9] = 30° C./65% RH, open dish, 1 week
[10] = 30° C./65% RH, open dish, 2 weeks
[11] = 30° C./65% RH, open dish, 4 weeks
[12] = 30° C./65% RH, open dish, 3 days
[13] = 40° C./75% RH, closed container, 1 week
[14] = 40° C./75% RH, closed container, 2 weeks
[15] = 40° C./75% RH, closed container, 4 weeks
[16] = 40° C./75% RH, closed container, 3 days
[17] = 40° C./75% RH, open dish, 1 week
[18] = 40° C./75% RH, open dish, 2 weeks
[19] = 40° C./75% RH, open dish, 4 weeks
[20] = 40° C./75% RH, open dish, 3 days

SMILES: OCCOCCOCCOCCOc1ccc(-c2nc3ccccc3s2)cc1 [Compound I Form III, 2-(2-(2-(2-(4-(benzo[d]thiazol-2-yl)phenoxy)ethoxy)ethoxy)ethoxy)ethan-1-ol]
Stability of crystal form (conversion on storage, air exposure or drying) ([1]; listed as Form III): quickly converted to Form I upon exposure to open air

Form change after storage (XRPD) [2]: no form change was observed | solubility ([3]; organic solvent or mixture, 1,4-dioxane): > 32 mg/mL | solubility ([3]; organic solvent or mixture, 2-MeTHF): 20 to 40 mg/mL (≈ 49.6 to 99.1 mM) | solubility ([3]; organic solvent or mixture, Acetone): 6 to 18 mg/mL (≈ 14.9 to 44.6 mM) | solubility ([3]; organic solvent or mixture, Acetonitrile): 8 to 24 mg/mL (≈ 19.8 to 59.5 mM) | solubility ([3]; organic solvent or mixture, CPME): < 2.6 mg/mL | solubility ([3]; organic solvent or mixture, DCM): > 38 mg/mL | solubility ([3]; organic solvent or mixture, DMF): > 44 mg/mL | solubility ([3]; organic solvent or mixture, DMSO): 18 to 36 mg/mL (≈ 44.6 to 89.2 mM) | solubility ([3]; organic solvent or mixture, EtOAc): 20 to 40 mg/mL (≈ 49.6 to 99.1 mM) | solubility ([3]; organic solvent or mixture, EtOH): 7.3 to 22 mg/mL (≈ 18.1 to 54.5 mM) | solubility ([3]; organic solvent or mixture, Heptane): < 2.2 mg/mL | solubility ([3]; organic solvent or mixture, IPA): < 1.9 mg/mL | solubility ([3]; organic solvent or mixture, IPAc): 1.7 to 5.7 mg/mL (≈ 4.21 to 14.1 mM) | solubility ([3]; organic solvent or mixture, MEK): 18 to 36 mg/mL (≈ 44.6 to 89.2 mM) | solubility ([3]; organic solvent or mixture, MIBK): 2.5 to 8.3 mg/mL (≈ 6.2 to 20.6 mM) | solubility ([3]; organic solvent or mixture, MTBE): < 2 mg/mL | solubility ([3]; organic solvent or mixture, MeOH): 21 to 42 mg/mL (≈ 52 to 104 mM) | solubility ([3]; organic solvent or mixture, THF): > 36 mg/mL | solubility ([3]; organic solvent or mixture, Toluene): 6 to 18 mg/mL (≈ 14.9 to 44.6 mM) | solubility ([3]; water, H2O): < 1.8 mg/mL
SMILES: OCCOCCOCCOCCOc1ccc(-c2nc3ccccc3s2)cc1 [Compound I, 2-(2-(2-(2-(4-(benzo[d]thiazol-2-yl)phenoxy)ethoxy)ethoxy)ethoxy)ethan-1-ol]
HPLC purity decrease after storage ([2]; 4 weeks): no significant HPLC purity decrease was observed

SMILES: OCCOCCOCCOCCOc1ccc(-c2nc3ccccc3s2)cc1 [Compound I Form V, 2-(2-(2-(2-(4-(benzo[d]thiazol-2-yl)phenoxy)ethoxy)ethoxy)ethoxy)ethan-1-ol]
Stability of crystal form (conversion on storage, air exposure or drying) ([1]; listed as Form V): converted to Form I upon vacuum drying at ˜50 °C

SMILES: OCCOCCOCCOCCOc1ccc(-c2nc3ccccc3s2)cc1 [Compound I Form II, 2-(2-(2-(2-(4-(benzo[d]thiazol-2-yl)phenoxy)ethoxy)ethoxy)ethoxy)ethan-1-ol]
Stability of crystal form (conversion on storage, air exposure or drying) ([1]; listed as Form II): changed to a mixture of Form II and C or a mixture of Form III and Form V upon storage

Form change after storage (XRPD) [2]: No form change | Purity/Initial (%) [2, 5]: 100.0% | Purity (Area %) [2, 5]: 99.66 Area % | Form Change [2, 5]: No | Purity/Initial (%) [2, 6]: 100.0% | Purity (Area %) [2, 6]: 99.64 Area % | Form Change [2, 6]: No | Purity/Initial (%) [2, 7]: 100.0% | Purity (Area %) [2, 7]: 99.66 Area % | Form Change [2, 7]: No | Purity/Initial (%) [2, 8]: 100.0% | Purity (Area %) [2, 8]: 99.68 Area % | Form Change [2, 8]: No | Purity/Initial (%) [2, 9]: 100.0% | Purity (Area %) [2, 9]: 99.66 Area % | Form Change [2, 9]: No | Purity/Initial (%) [2, 10]: 100.0% | Purity (Area %) [2, 10]: 99.63 Area % | Form Change [2, 10]: No | Purity/Initial (%) [2, 11]: 100.0% | Purity (Area %) [2, 11]: 99.66 Area % | Form Change [2, 11]: No | Purity/Initial (%) [2, 12]: 100.0% | Purity (Area %) [2, 12]: 99.69 Area % | Form Change [2, 12]: No | Purity/Initial (%) [2, 13]: 100.0% | Purity (Area %) [2, 13]: 99.66 Area % | Form Change [2, 13]: No | Purity/Initial (%) [2, 14]: 99.8% | Purity (Area %) [2, 14]: 99.45 Area % | Form Change [2, 14]: No | Purity/Initial (%) [2, 15]: 100.0% | Purity (Area %) [2, 15]: 99.65 Area % | Form Change [2, 15]: No | Purity/Initial (%) [2, 16]: 100.1% | Purity (Area %) [2, 16]: 99.76 Area % | Form Change [2, 16]: No | Purity/Initial (%) [2, 17]: 100.0% | Purity (Area %) [2, 17]: 99.66 Area % | Form Change [2, 17]: No | Purity/Initial (%) [2, 18]: 100.0% | Purity (Area %) [2, 18]: 99.63 Area % | Form Change [2, 18]: No | Purity/Initial (%) [2, 19]: 100.0% | Purity (Area %) [2, 19]: 99.65 Area % | Form Change [2, 19]: No | Purity/Initial (%) [2, 20]: 99.9% | Purity (Area %) [2, 20]: 99.61 Area % | Form Change [2, 20]: No | Form change after DVS test (XRPD) ([4]; 25° C., 0% RH-95% RH-0% RH): No form change was observed | Water uptake (DVS) ([4]; 25° C./80% RH): 0.64% | Water uptake (DVS) ([4]; 25° C./95% RH): 21.43%
SMILES: OCCOCCOCCOCCOc1ccc(-c2nc3ccccc3s2)cc1 [Compound I Form I, 2-(2-(2-(2-(4-(benzo[d]thiazol-2-yl)phenoxy)ethoxy)ethoxy)ethoxy)ethan-1-ol]
HPLC purity decrease after storage ([2]; 4 weeks): No form change and significant HPLC purity decrease were observed
